Counter-ions that a name gives are not always drawn.
Assays:
[1] = system: NRF2; assay: NRF2 luciferase assay (NRF2/ARE reporter cell line); format: cell-based, human; details: for effect on the NRF2 pathway: FIG. 4, tobacco alkaloids; for maximum log 2-fold change of NRF2 activation: at 12.5 μM for sulforaphane, 125 μM and 250 μM for DMF, 1000 μM for anatabine
Excerpt: A HEK-293 NRF2/ARE luciferase reporter cell line was acquired from Signosis (USA). According to Signosis, this NRF2 luciferase reporter stable cell line had been stably transfected with pTA-ARE-luciferase reporter vector, which contains 4 repeats of antioxidant response binding sites, a minimal promoter upstream of the firefly luciferase coding region, along with a hygromycin expression vector. Following selection, the hygromycin resistant clones were subsequently screened for TBHQ-induced luciferase activity. The clone with the highest fold induction was selected and expanded to produce this stable cell line.
4, 8 or 24 hours after stimulation of the NRF2 reporter cells luminescence was measured using a FLUOstar Omega plate reader.

[2] = system: NRF2 reporter cells; assay: Cell viability measured with ATP assay alongside NRF2 translocation (FIG. 4 to 7); details: for cell viability, percentage of the vehicle control: human
Excerpt: FIGS. 5A to 5C: bar and line graphs showing NRF2 translocation presented as log 2 fold change compared to vehicle control (bars) and cell viability measured with ATP assay and presented as a percentage of the vehicle control (line) for anatabine (FIG. 5A), dimethyl fumarate (AlfaAesar) (FIG. 5B), and nornicotine (FIG. 5C).
FIGS. 6A to 6C: bar graphs showing NRF2 translocation presented as log 2 fold change compared to vehicle control (bars) and cell viability measured with ATP assay and presented as a percentage of the vehicle control (line) for anatabine (FIG. 6A), dimethyl fumarate (Sigma) (FIG. 6B), and sulforaphane (FIG. 6C).
FIGS. 7A and […]: bar graphs showing NRF2 translocation presented as log 2 fold change compared to vehicle control (bars) and cell viability measured with ATP assay and presented as a percentage of the vehicle control (line) for cotinine (FIG. 7A) and nicotine (FIG. 7B).

CN1CCCC1c1cccnc1 (centres unmarked) [nicotine]
effect on the NRF2 pathway [1]: do not substantially affect

c1cncc([C@@H]2CCCN2)c1 [nornicotine]
effect on the NRF2 pathway [1]: do not substantially affect

CN1C(=O)CC[C@H]1c1cccnc1 [cotinine]
effect on the NRF2 pathway [1]: do not substantially affect | cell viability, percentage of the vehicle control ([2]; 500 μM): below 85% | cell viability, percentage of the vehicle control ([2]; 1000 μM): below 85%

C[S+]([O-])CCCCN=C=S (centres unmarked) [sulforaphane]
NRF2 activation, log 2-fold change ([1]; 0.78 to 50 μM (P<0.01)): increase | maximum log 2-fold change of NRF2 activation [1]: approximately 5 | cell viability at higher concentrations [2]: significantly reduced | cell viability, percentage of the vehicle control ([2]; 25 μM): around 50%

COC(=O)/C=C/C(=O)OC [DMF, dimethyl fumarate]
NRF2 activation, log 2-fold change ([1]; 125 μM, DMF from AlfaAesar): 6.74 | NRF2 activation, log 2-fold change ([1]; 125 μM, DMF from Sigma): 6.90 | NRF2 activation, log 2-fold change ([1]; 250 μM, DMF from AlfaAesar): 6.81 | NRF2 activation, log 2-fold change ([1]; 250 μM, DMF from Sigma): 6.67 | maximum log 2-fold change of NRF2 activation [1]: 6 to 7 | cell viability at higher concentrations [2]: significantly reduced | cell viability, percentage of the vehicle control ([2]; 500 μM): ~0%

c1cncc([C@@H]2CCCCN2)c1 [anabasine]
effect on the NRF2 pathway [1]: do not substantially affect

Reference: patent US20260224547A1, “COMPOSITIONS COMPRISING ANATABINE AND USES THEREOF” (Philip Morris Products S.A., priority 2021, published 2026)
